Earlier results in PMC3950855 (British Journal of Cancer, 2014).

Test system: GIST
Settings: salvage treatment; ref Demetri et al, 2006, 2012; cited from earlier work

| SMILES | median time to progression | objective remissions |
| --- | --- | --- |
| CNC(=O)c1cc(Oc2ccc(NC(=O)Nc3ccc(Cl)c(C(F)(F)F)c3)c(F)c2)ccn1 [regorafenib] | ~6 months | 4.5% |
| CCN(CC)CCNC(=O)c1c(C)[nH]c(/C=C2\C(=O)Nc3ccc(F)cc32)c1C [sunitinib] | ~6 months | 7% |
